The values that follow come from BindingDB's records for doi:10.1021/jm010087e (The University of Western Australia, 2001).

This assay can be described thus: Inhibitory activity against clostridium histolyticum collagenase.

Usually Ki stands for a measure of affinity in units of concentration, obtained from inhibition or displacement. Compound `CC(C(=O)NO)N(Cc1ccccc1[N+](=O)[O-])S(=O)(=O)C(Cl)(Cl)Cl` (stereo not drawn) [N-Hydroxy-2-[(2-nitro-benzyl)-trichloromethanesulfonyl-amino]-propionamide] returned a Ki of 64 nM.

For the compound `CC(C(=O)NO)N(Cc1ccccc1[N+](=O)[O-])S(=O)(=O)C(F)(F)F` (stereo not drawn) [N-Hydroxy-2-[(2-nitro-benzyl)-trifluoromethanesulfonyl-amino]-propionamide], the Ki was determined as 70 nM.

As to `CC(C(=O)NO)N(Cc1ccccc1[N+](=O)[O-])S(=O)(=O)c1cccc([N+](=O)[O-])c1` (stereo not drawn) [N-Hydroxy-2-[(3-nitro-benzenesulfonyl)-(2-nitro-benzyl)-amino]-propionamide], the Ki came to 10 nM. This Ki lies about 7-fold lower than the previous one.

Consider `CC(C(=O)NO)N(Cc1ccccc1[N+](=O)[O-])S(=O)(=O)c1ccc(I)cc1` (stereo not drawn) [N-Hydroxy-2-[(4-iodo-benzenesulfonyl)-(2-nitro-benzyl)-amino]-propionamide], for which the Ki is 34 nM.

`CC(C(=O)NO)N(Cc1ccccc1[N+](=O)[O-])S(=O)(=O)c1ccc([N+](=O)[O-])cc1` (stereo not drawn) [N-Hydroxy-2-[(4-nitro-benzenesulfonyl)-(2-nitro-benzyl)-amino]-propionamide]: the inhibitory constant (Ki) came to 13 nM.

`CC(C(=O)NO)N(Cc1ccccc1[N+](=O)[O-])S(=O)(=O)c1cccc2ccccc12` (stereo not drawn) [N-Hydroxy-2-[(naphthalene-1-sulfonyl)-(2-nitro-benzyl)-amino]-propionamide] had an inhibition constant Ki of 6 nM.

The compound `CC(C(=O)NO)N(Cc1ccccc1[N+](=O)[O-])S(=O)(=O)c1ccc2ccccc2c1` (stereo not drawn) [N-Hydroxy-2-[(naphthalene-2-sulfonyl)-(2-nitro-benzyl)-amino]-propionamide] came in with an inhibition constant (Ki) of 8 nM.

Take `CC(C(=O)NO)N(Cc1ccccc1[N+](=O)[O-])S(C)(=O)=O` (stereo not drawn) [N-Hydroxy-2-[methanesulfonyl-(2-nitro-benzyl)-amino]-propionamide]: the Ki is 86 nM.

The compound `CC(C(=O)NO)N(Cc1ccccc1[N+](=O)[O-])C(=O)NS(=O)(=O)c1ccccc1` (stereo not drawn) [N-hydroxy-2-((2-nitrobenzyl){[(phenylsulfonyl)amino]carbonyl}amino)propanamide] had a Ki of 12 nM.

`Cc1ccccc1S(=O)(=O)NC(=O)N(Cc1ccccc1[N+](=O)[O-])C(C)C(=O)NO` (stereo not drawn) [N-hydroxy-2-[({[(2-methylphenyl)sulfonyl]amino}carbonyl)(2-nitrobenzyl)amino]propanamide] had a Ki of 9 nM.

In turn, `CC(C(=O)NO)N(Cc1ccccc1[N+](=O)[O-])S(=O)(=O)c1cccc(NC(=O)OC(C)(C)C)c1` (stereo not drawn) [{3-[(1-Hydroxycarbamoyl-ethyl)-(2-nitro-benzyl)-sulfamoyl]-phenyl}-carbamic acid tert-butyl ester] registered a Ki of 8 nM.

`CC(C(=O)NO)N(Cc1ccccc1[N+](=O)[O-])S(=O)(=O)c1ccc(NC(=O)OC(C)(C)C)cc1` (stereo not drawn) [{4-[(1-Hydroxycarbamoyl-ethyl)-(2-nitro-benzyl)-sulfamoyl]-phenyl}-carbamic acid tert-butyl ester] had an inhibition constant Ki of 9 nM.

In the case of `COc1ccc(S(=O)(=O)N(Cc2ccccc2[N+](=O)[O-])C(C)C(=O)NO)cc1NC(=O)OC(C)(C)C` (stereo not drawn) [{5-[(1-Hydroxycarbamoyl-ethyl)-(2-nitro-benzyl)-sulfamoyl]-2-methoxy-phenyl}-carbamic acid tert-butyl ester], affinity was put at a Ki of 9 nM.
